Test results as given in patent US7094420B2, “Methods of using isomer enriched conjugated linoleic acid compositions” (Natural ASA, priority 1998, dated 2006).

Test: Mouse feeding trial of diets with different ratios and amounts of CLA isomers
Format: in vivo, ICR mice
Procedure: Based on the results of Example 1, the Inventors believe that the t10,c12 isomer is an active isomer.
The trial was conducted with 84 ICR mice purchased from Harlan Sprague Dawley (Madison, Wis.). The diets were blended using the basal diet, sugar, corn oil and one or a blend of isomers of conjugated linoleic acid (expressed as percent of diet). Each treatment consisted of 2 pens of 3 mice. Mice had food and water ad libitum. Food consumption was monitored daily and mice were weighed every other day when bedding was changed. At three weeks of feeding the diet, mice were euthanized by CO2 and final body weights were taken. Mice were then necropsied and fat pads were weighed. Mice were also analyzed for total body fat. Mice were freeze dried and ground. Duplicate samples were analyzed by proximate analysis (ether extraction, ash, kjeldahl, and moisture).

CCCCC/C=C\C=C\CCCCCCCCC(=O)O [t10,c12 CLA, t10,c12 octadecadienoic acid]
body fat compared to control mice (mice fed only t10,c12 CLA vs control mice not receiving CLA): reduced body fat | reduction in growth (mice fed t10,c12 isomer only): 10%

CCCCCC/C=C/C=C\CCCCCCCC(=O)O [c9,t11 CLA, c9,t11 octadecadienoic acid]
improvement in growth (mice fed only c9,t11 CLA, no t10,c12 present, linear): 16% | growth, rate of gain, and feed conversion (mice receiving only c9,t11 CLA): increased growth, rate of gain, and feed conversion
